Test [1] relates to collagen-induced arthritis. The following applies: in vivo; cited from earlier work.
Test [2] deals with T1, recombinant human ALX receptor (Homo sapiens, UniProt P25090).
T1 construct: expressed in transfected cells; host or cells: HEK293 (HEK293-hALXR-Gα16)
T1 sequence (P25090 1-351): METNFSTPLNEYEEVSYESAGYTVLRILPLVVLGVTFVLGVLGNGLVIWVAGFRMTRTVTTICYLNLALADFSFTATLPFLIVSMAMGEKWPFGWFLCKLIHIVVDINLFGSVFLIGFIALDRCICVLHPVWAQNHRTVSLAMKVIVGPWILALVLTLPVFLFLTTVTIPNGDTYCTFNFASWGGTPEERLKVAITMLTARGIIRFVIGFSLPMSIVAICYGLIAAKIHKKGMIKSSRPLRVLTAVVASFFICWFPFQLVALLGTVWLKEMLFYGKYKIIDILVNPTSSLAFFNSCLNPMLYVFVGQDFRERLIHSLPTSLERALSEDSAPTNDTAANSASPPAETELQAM
In words: Intracellular calcium measurements (FLIPR), ALX receptor agonistic activity. Type of test: cell-based. The note with it: HEK293-hALXR-Gα16 cells, Fluo-4 calcium signal, normalized to WKYMVm 10 nM. The essentials:
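Agonist-induced calcium flux was read by FLIPR (488/540 nm) as baseline-subtracted peak emission, expressed relative to WKYMVm at 10 nM final. Cells used: HEK293-hALXR-Gα16, dye-loaded 60 min at 37° C. with 1 μM Fluo-4 AM before compound dose-response addition.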

A further test addresses T2, ALXR (Homo sapiens, UniProt P25090).
T2 sequence (P25090 1-351): T1 sequence (P25090 1-351)
The following applies: cited from earlier work.

For test [3], the system named is human fibroblast-like synoviocytes. The note with it: cited from earlier work.
Another test concerns dry corneal surface. The note with it: topical treatment; cited from earlier work.
For test [4], the system named is models of Alzheimer's Disease. The following applies: cited from earlier work.

pEC50: −log10 of the molar value.

For the compound `COC(=O)CCC[C@H](O)[C@H](O)CO` [BML-111], the “severity of collagen-induced arthritis” value in test [1] is “reduced the severity of collagen-induced arthritis”. Consider `COc1ccc(CC(NC(=O)Nc2ccnn2-c2ccc(OC)cc2)c2nc3ccccc3[nH]2)cc1` (stereo not shown) [Example 406, 1-(1-(1H-benzo[d]imidazol-2-yl)-2-(4-methoxyphenyl)ethyl)-3-(1-(4-methoxyphenyl)-1H-pyrazol-5-yl)urea], for which the pEC50 in test [2] is 6.74. Take `COc1ccc(CC(NC(=O)Nc2ccnn2-c2ccc(C(C)C)cc2)c2nc3ccccc3[nH]2)cc1` (stereo not shown) [Example 407, 1-(1-(1H-benzo[d]imidazol-2-yl)-2-(4-methoxyphenyl)ethyl)-3-(1-(4-isopropylphenyl)-1H-pyrazol-5-yl)urea]: in test [2], the pEC50 is 6.81. Same read-out and setting: for `COc1ccc(CC(NC(=O)Nc2cc(C)nn2-c2ccccc2)c2nc3ccccc3[nH]2)cc1` (stereo not shown) [Example 408, 1-(1-(1H-benzo[d]imidazol-2-yl)-2-(4-methoxyphenyl)ethyl)-3-(3-methyl-1-phenyl-1H-pyrazol-5-yl)urea] the value was 7.70; for `COc1ccc(CC(NC(=O)Nc2ccnn2-c2ccncc2)c2nc3ccccc3[nH]2)cc1` (stereo not shown) [Example 409, 1-(1-(1H-benzo[d]imidazol-2-yl)-2-(4-methoxyphenyl)ethyl)-3-(1-(pyridin-4-yl)-1H-pyrazol-5-yl)urea], 6.44. With `COc1ccc(CC(NC(=O)Nc2ccnn2-c2ccc(F)cc2)c2nc3ccccc3[nH]2)cc1` (stereo not shown) [Example 410, 1-(1-(1H-benzo[d]imidazol-2-yl)-2-(4-methoxyphenyl)ethyl)-3-(1-(4-fluorophenyl)-1H-pyrazol-5-yl)urea], the pEC50 in test [2] is 7.35. The same measure, in the same setting: in the case of `COc1ccc(CC(NC(=O)Nc2ccnn2-c2ccccn2)c2nc3ccccc3[nH]2)cc1` (stereo not shown) [Example 411, 1-(1-(1H-benzo[d]imidazol-2-yl)-2-(4-methoxyphenyl)ethyl)-3-(1-(pyridin-2-yl)-1H-pyrazol-5-yl)urea] it was 7.25.

Take `COc1ccc(CC(NC(=O)Nc2ccnn2-c2ccccc2)c2nc3ccccc3[nH]2)cc1` (stereo not shown) [Example 412, 1-(1-(1H-benzo[d]imidazol-2-yl)-2-(4-methoxyphenyl)ethyl)-3-(1-phenyl-1H-pyrazol-5-yl)urea]: in test [2], the negative-log EC50 (pEC50) was 6.80. In the case of `COc1ccc(CC(NC(=O)Nc2ccnn2-c2ccc(OC(F)(F)F)cc2)c2nc3ccccc3[nH]2)cc1` (stereo not shown) [Example 413, 1-(1-(1H-benzo[d]imidazol-2-yl)-2-(4-methoxyphenyl)ethyl)-3-(1-(4-(trifluoromethoxy)phenyl)-1H-pyrazol-5-yl)urea], the pEC50 in test [2] was 6.82. Same read-out and setting: for `COc1ccc(CC(NC(=O)Nc2ccnn2C(C)(C)C)c2nc3ccccc3[nH]2)cc1` (stereo not shown) [Example 414, 1-(1-(1H-benzo[d]imidazol-2-yl)-2-(4-methoxyphenyl)ethyl)-3-(1-(tert-butyl)-1H-pyrazol-5-yl)urea] the value was 7.52. Take `COc1ccc(CC(NC(=O)Nc2ccnn2Cc2ccccc2)c2nc3ccccc3[nH]2)cc1` (stereo not shown) [Example 415, 1-(1-(1H-benzo[d]imidazol-2-yl)-2-(4-methoxyphenyl)ethyl)-3-(1-benzyl-1H-pyrazol-5-yl)urea]: the pEC50 in test [2] is 7.00. Same read-out and setting: in the case of `COc1ccc(CC(NC(=O)Nc2cc(C)nn2C)c2nc3ccccc3[nH]2)cc1` (stereo not shown) [Example 416, 1-(1-(1H-benzo[d]imidazol-2-yl)-2-(4-methoxyphenyl)ethyl)-3-(1,3-dimethyl-1H-pyrazol-5-yl)urea] it was 7.05; in that of `CCn1nccc1NC(=O)NC(Cc1ccc(OC)cc1)c1nc2ccccc2[nH]1` (stereo not shown) [Example 417, 1-(1-(1H-benzo[d]imidazol-2-yl)-2-(4-methoxyphenyl)ethyl)-3-(1-ethyl-1H-pyrazol-5-yl)urea], 7.21.

For `COc1ccc(CC(NC(=O)Nc2ccnn2C)c2nc3ccccc3[nH]2)cc1` (stereo not shown) [Example 418, 1-(1-(1H-benzo[d]imidazol-2-yl)-2-(4-methoxyphenyl)ethyl)-3-(1-methyl-1H-pyrazol-5-yl)urea], in test [2], the pEC50 is 6.68. `COc1ccc(CC(NC(=O)Nc2ccnn2-c2cccc(OC)c2)c2nc3ccccc3[nH]2)cc1` (stereo not shown) [Example 419, 1-(1-(1H-benzo[d]imidazol-2-yl)-2-(4-methoxyphenyl)ethyl)-3-(1-(3-methoxyphenyl)-1H-pyrazol-5-yl)urea]: the negative logarithm of the EC50 (pEC50) in test [2] is 7.25. Still for that read-out and setting: for `COc1ccc(CC(NC(=O)Nc2ccnn2-c2ccc(C)cc2)c2nc3ccccc3[nH]2)cc1` (stereo not shown) [Example 420, 1-(1-(1H-benzo[d]imidazol-2-yl)-2-(4-methoxyphenyl)ethyl)-3-(1-(p-tolyl)-1H-pyrazol-5-yl)urea] the value was 6.68.

In the case of `COc1ccc(CC(NC(=O)Nc2ccnn2-c2ccccc2OC)c2nc3ccccc3[nH]2)cc1` (stereo not shown) [Example 421, 1-(1-(1H-benzo[d]imidazol-2-yl)-2-(4-methoxyphenyl)ethyl)-3-(1-(2-methoxyphenyl)-1H-pyrazol-5-yl)urea], the pEC50 in test [2] is 7.34. The same measure, in the same setting: for `COc1ccc(CC(C)(NC(=O)Nc2cc(C3CC3)nn2C)c2nc3ccccc3[nH]2)cc1` (stereo not shown) [Example 422, 1-(2-(1H-benzo[d]imidazol-2-yl)-1-(4-methoxyphenyl)propan-2-yl)-3-(3-cyclopropyl-1-methyl-1H-pyrazol-5-yl)urea] the value was 6.14; for `COc1ccc(C[C@@H](NC(=O)NCc2nc(C(C)(F)F)co2)c2nc3ccccc3[nH]2)cc1` [Example 423, (R)-1-(1-(1H-benzo[d]imidazol-2-yl)-2-(4-methoxyphenyl)ethyl)-3-((4-(1,1-difluoroethyl)oxazol-2-yl)methyl)urea], 6.25. Regarding `CCCCC[C@H](O)/C=C/C=C\C=C\C=C\[C@@H](O)[C@@H](O)CCCC(=O)O` [Lipoxin A4, lipoxin A4], the “binding to ALXR” value at ALXR is on record as “high affinity”. Moreover, the IL-6 expression result in test [3] is given as “inhibited IL-6 expression”. The “re-epithelization and inflammation of the dry corneal surface” value with dry corneal surface is “increases re-epithelization and decreases inflammation of the dry corneal surface”. As for “(R)-tert-Butyl 4-((3-(1-(1H-benzo[d]imidazol-2-yl)-2-(4-methoxyphenyl)ethyl)ureido)methyl)piperidine-1-carboxylate [Example 106]”, in test [2], the pEC50 is 6.27. On the same count and under the same terms, in the case of “(R)—N-(1-(1H-Benzo[d]imidazol-2-yl)-2-(4-methoxyphenyl)ethyl)-4-acetylpiperazine-1-carboxamide [Example 135]” it was 6.48.

With “humanin: high-affinity ligand for FPR2, neuroprotective in models of Alzheimer's Disease (MAPRGFSCLLLLTSEIDLPVKRRA; Humanin; UniProt Q8IVG9 1-24, looked up)”, the neuroprotection entry in test [4] is given as “neuroprotective”.

(Values after US9663473B2 (Actelion Pharmaceuticals Ltd, priority 2013, dated 2017).)
